From patent US10168342B2, “Lipid probes and uses thereof” (THE SCRIPPS RESEARCH INSTITUTE, priority 2015, dated 2019)
Read-outs that look alike come from different tables or passages of the source.

Columns and labels:
[1] = target: T1, AEA-DA lipid probe targets in Neuro2a cells (Mus musculus, UniProt O70503); conditions: for SILAC ratio, HSD17B12 (Q53GQ0): Neuro2a cells, AEA-DA probe
T1 sequence (O70503 1-312): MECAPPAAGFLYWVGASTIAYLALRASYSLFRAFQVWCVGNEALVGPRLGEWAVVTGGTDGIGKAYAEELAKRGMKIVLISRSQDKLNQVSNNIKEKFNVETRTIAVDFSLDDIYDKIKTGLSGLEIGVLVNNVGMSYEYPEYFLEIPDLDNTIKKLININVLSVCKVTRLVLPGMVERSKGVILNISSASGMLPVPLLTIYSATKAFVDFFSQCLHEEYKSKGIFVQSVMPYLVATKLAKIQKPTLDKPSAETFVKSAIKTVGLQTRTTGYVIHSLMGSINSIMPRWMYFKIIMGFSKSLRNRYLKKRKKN

[2] = target: T2, AEA-DA lipid probe targets in Neuro2a cells (Mus musculus, UniProt Q8BHC4); conditions: for SILAC ratio, DCAKD (Q8BHC4): Neuro2a cells, AEA-DA probe
T2 sequence (Q8BHC4 1-231): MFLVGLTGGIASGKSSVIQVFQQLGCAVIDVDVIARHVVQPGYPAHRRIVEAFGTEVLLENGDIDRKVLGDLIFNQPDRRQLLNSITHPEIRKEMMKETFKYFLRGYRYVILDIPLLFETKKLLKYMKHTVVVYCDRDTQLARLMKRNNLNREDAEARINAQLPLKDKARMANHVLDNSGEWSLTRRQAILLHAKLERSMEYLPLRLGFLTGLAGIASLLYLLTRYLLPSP

[3] = target: AEA-DA lipid probe targets in Neuro2a cells (Mus musculus, UniProt Q91WD5)
AEA-DA lipid probe targets in Neuro2a cells (Mus musculus, UniProt Q91WD5), sequence (Q91WD5 34-463): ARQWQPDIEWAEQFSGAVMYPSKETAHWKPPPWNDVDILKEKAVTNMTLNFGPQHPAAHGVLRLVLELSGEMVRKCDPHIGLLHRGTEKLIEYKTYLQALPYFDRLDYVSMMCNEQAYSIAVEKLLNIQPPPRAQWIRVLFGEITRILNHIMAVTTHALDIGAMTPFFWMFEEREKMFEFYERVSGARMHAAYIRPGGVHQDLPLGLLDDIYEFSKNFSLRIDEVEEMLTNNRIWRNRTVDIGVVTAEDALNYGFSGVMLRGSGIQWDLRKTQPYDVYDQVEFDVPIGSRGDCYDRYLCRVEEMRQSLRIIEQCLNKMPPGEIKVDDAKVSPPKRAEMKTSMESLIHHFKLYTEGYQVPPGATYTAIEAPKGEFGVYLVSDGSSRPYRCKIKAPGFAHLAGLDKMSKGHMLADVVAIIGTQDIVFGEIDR

[4] = target: T3, AEA-DA lipid probe targets in Neuro2a cells (Mus musculus, UniProt Q8BHN3)
T3 sequence (Q8BHN3 33-944): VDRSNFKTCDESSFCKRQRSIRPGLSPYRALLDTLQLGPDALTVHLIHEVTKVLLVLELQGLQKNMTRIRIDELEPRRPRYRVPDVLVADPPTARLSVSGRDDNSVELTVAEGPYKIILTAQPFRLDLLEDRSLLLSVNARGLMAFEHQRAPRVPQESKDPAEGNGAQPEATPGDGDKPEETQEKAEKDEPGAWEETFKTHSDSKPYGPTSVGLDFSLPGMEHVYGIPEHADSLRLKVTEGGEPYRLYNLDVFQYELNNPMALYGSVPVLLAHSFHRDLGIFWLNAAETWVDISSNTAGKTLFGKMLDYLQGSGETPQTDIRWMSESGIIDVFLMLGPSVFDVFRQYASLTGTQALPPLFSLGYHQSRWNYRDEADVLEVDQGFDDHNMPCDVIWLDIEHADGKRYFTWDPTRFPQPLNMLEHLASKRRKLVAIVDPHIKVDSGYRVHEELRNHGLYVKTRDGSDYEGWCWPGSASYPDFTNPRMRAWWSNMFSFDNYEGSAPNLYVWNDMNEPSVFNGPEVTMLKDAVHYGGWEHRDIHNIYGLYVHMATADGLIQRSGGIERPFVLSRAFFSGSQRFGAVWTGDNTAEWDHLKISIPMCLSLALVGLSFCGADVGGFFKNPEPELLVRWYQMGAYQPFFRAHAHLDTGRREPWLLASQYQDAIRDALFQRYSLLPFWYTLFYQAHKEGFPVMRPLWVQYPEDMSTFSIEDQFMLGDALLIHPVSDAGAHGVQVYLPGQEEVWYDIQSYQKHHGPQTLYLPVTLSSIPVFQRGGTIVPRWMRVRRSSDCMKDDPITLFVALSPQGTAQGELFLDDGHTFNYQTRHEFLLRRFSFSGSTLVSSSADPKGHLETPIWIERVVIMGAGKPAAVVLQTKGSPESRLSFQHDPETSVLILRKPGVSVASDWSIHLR

[5] = target: T4, AEA-DA lipid probe targets in Neuro2a cells (Mus musculus, UniProt Q8R0X7); conditions: for SILAC ratio, SGPL1 (O95470): Neuro2a cells, AEA-DA probe
T4 sequence (Q8R0X7 1-568): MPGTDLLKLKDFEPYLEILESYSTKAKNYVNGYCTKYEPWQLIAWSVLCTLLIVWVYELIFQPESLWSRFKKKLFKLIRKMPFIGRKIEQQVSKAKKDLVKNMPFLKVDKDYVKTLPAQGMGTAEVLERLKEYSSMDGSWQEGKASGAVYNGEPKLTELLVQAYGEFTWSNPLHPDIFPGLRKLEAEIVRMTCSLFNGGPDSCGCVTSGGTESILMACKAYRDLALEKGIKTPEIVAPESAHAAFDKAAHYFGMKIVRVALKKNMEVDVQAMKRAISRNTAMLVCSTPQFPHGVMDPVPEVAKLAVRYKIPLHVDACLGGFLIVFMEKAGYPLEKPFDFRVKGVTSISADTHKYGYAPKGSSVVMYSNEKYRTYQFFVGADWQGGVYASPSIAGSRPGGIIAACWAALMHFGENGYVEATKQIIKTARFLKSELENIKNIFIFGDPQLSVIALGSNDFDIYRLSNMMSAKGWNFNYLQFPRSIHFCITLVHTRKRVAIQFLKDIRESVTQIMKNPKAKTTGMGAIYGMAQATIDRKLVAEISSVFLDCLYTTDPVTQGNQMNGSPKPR

[6] = target: T5, AEA-DA lipid probe targets in Neuro2a cells (Mus musculus, UniProt Q9CR67)
T5 sequence (Q9CR67 1-247): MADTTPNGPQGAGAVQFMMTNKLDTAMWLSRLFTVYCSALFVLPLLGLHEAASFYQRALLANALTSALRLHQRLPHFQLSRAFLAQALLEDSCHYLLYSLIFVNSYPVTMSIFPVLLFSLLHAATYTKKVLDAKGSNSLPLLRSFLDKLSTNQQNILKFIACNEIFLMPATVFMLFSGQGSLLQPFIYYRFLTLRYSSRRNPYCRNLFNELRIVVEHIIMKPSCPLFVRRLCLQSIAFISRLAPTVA

[7] = target: AEA-DA lipid probe targets in Neuro2a cells (Mus musculus, UniProt O88696)
AEA-DA lipid probe targets in Neuro2a cells (Mus musculus, UniProt O88696), sequence (O88696 53-272): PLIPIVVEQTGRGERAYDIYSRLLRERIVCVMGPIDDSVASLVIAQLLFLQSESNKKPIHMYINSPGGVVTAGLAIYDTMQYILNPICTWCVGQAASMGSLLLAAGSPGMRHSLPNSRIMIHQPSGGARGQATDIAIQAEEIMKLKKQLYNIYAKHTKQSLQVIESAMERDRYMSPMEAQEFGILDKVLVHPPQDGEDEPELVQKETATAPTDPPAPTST

[8] = target: AEA-DA lipid probe targets in Neuro2a cells (Mus musculus, UniProt P97300); conditions: competitor 25 μM; for SILAC ratio, NPTN (Q9Y639): Neuro2a cells, AEA-DA probe
AEA-DA lipid probe targets in Neuro2a cells (Mus musculus, UniProt P97300), sequence (P97300 29-397): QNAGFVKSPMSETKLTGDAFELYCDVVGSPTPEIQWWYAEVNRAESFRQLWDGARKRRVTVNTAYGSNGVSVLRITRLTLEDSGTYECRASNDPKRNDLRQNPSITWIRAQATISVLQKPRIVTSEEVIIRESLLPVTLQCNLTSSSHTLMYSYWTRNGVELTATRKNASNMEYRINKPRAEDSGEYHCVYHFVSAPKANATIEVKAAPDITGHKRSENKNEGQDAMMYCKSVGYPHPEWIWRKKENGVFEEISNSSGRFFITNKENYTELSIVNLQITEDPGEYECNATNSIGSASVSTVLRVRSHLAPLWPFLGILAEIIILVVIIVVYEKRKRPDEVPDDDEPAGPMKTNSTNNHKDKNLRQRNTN

| SMILES | SILAC ratio, HSD17B12 (Q53GQ0) ([1]; competitor 25 μM) | SILAC ratio, Hsd17b12 ([1]; competitor 25 μM) | SILAC ratio, DCAKD (Q8BHC4) ([2]; competitor 25 μM) | SILAC ratio, Dcakd ([2]; competitor 25 μM) | SILAC ratio, NPTN (Q9Y639) [8] | SILAC ratio, Nptn [8] | SILAC ratio Ndufs2 ([3]; competitor 25 μM) | SILAC ratio Ganab ([4]; competitor 25 μM) | SILAC ratio, SGPL1 (O95470) ([5]; competitor 25 μM) | SILAC ratio, Sgpl1 ([5]; competitor 25 μM) | SILAC ratio, Tmem33 ([6]; competitor 25 μM) | SILAC ratio Clpp ([7]; competitor 25 μM) | also measured |
| --- | --- | --- | --- | --- | --- | --- | --- | --- | --- | --- | --- | --- | --- |
| CCCCC/C=C\C/C=C\C/C=C\C/C=C\CCCC(=O)NCCO [AEA, anandamide, reference compound] |  |  |  |  |  |  |  |  |  |  |  |  | SILAC ratio, HSD17B12 (Q53GQ0) ([1]; competitor 200 μM): 2.2; SILAC ratio, Hsd17b12 ([1]; competitor 200 μM): 2.2; SILAC ratio, DCAKD (Q8BHC4) ([2]; competitor 200 μM): 1.9; SILAC ratio, Dcakd ([2]; competitor 200 μM): 1.9; SILAC ratio Ndufs2 ([3]; competitor 200 μM): 1.3; SILAC ratio Ganab ([4]; competitor 200 μM): 1.1; SILAC ratio, SGPL1 (O95470) ([5]; competitor 200 μM): 2.7; SILAC ratio, Sgpl1 ([5]; competitor 200 μM): 2.7; SILAC ratio, Tmem33 ([6]; competitor 200 μM): 1.8; SILAC ratio Clpp ([7]; competitor 200 μM): 1.4 |
| C=CCN(C)CCCCCCOc1ccc(C(=O)c2ccc(Br)cc2)c(F)c1 [Ro 48-8071, reference compound] | 0.9 | 0.9 | 1.0 | 1.0 | 2.0 | 2.0 | 1.2 | 0.9 | 1.2 | 1.2 | 1.1 | 0.9 |  |
| CN1CCN(C(=O)c2c(-c3ccccc3)c3cc([N+](=O)[O-])ccc3n2C)CC1 [KML110, (1-Methyl-5-nitro-3-phenyl-1H-indol-2-yl)(4-methylpiperazin-1-yl)methanone] |  | 1.7 |  | 1.4 |  |  | 1.3 | 1.3 |  | 1.4 | 1.4 | 2.4 |  |
| O=C(/C=C/c1cccnc1)NCCCCC1CCN(C(=O)c2ccccc2)CC1 [FK-866, reference compound] | 1.7 | 1.7 | 1.1 | 1.1 | 1.2 | 1.2 | 1.7 | 1.1 | 1.7 | 1.7 | 1.2 | 1.0 |  |
| CN1CCN(C(=O)c2[nH]c3ccc([N+](=O)[O-])cc3c2-c2ccccc2)CC1 [MJN228, (4-Methylpiperazin-1-yl)(5-nitro-3-phenyl-1H-indol-2-yl)methanone] | 1.6 | 1.6 | 1.4 | 1.4 | 1.9 | 1.9 | 1.3 | 1.2 | 1.5 | 1.5 | 1.5 | 2.1 | SILAC ratio, Hsd17b12 ([1]; competitor 10 μM): 1.2; SILAC ratio, Hsd17b12 ([1]; competitor 50 μM): 1.7; SILAC ratio, Hsd17b12 ([1]; competitor 100 μM): 2.3; SILAC ratio, Dcakd ([2]; competitor 10 μM): 1.2; SILAC ratio, Dcakd ([2]; competitor 50 μM): 1.5; SILAC ratio, Dcakd ([2]; competitor 100 μM): 1.9; SILAC ratio Ndufs2 ([3]; competitor 10 μM): 1.3; SILAC ratio Ndufs2 ([3]; competitor 100 μM): 1.1; SILAC ratio Ganab ([4]; competitor 10 μM): 1.2; SILAC ratio Ganab ([4]; competitor 50 μM): 1.5; SILAC ratio Ganab ([4]; competitor 100 μM): 1.6; SILAC ratio, Sgpl1 ([5]; competitor 10 μM): 1.3; SILAC ratio, Sgpl1 ([5]; competitor 50 μM): 1.8; SILAC ratio, Sgpl1 ([5]; competitor 100 μM): 2.7; SILAC ratio, Tmem33 ([6]; competitor 10 μM): 1.3; SILAC ratio, Tmem33 ([6]; competitor 50 μM): 1.5; SILAC ratio, Tmem33 ([6]; competitor 100 μM): 2.0; SILAC ratio Clpp ([7]; competitor 10 μM): 1.4; SILAC ratio Clpp ([7]; competitor 50 μM): 3.6; SILAC ratio Clpp ([7]; competitor 100 μM): 9.0 |
